The nature of assay [1]: Inhibition of N-terminal 6His-taggged Mycobacterium tuberculosis KARI expressed in Escherichia coli BL21 using 2-acetolactate as substrate preincubated for 30 mins followed by substrate addition in presence of NADPH.
Assay [2] relates to Mycobacterium tuberculosis. The assay is described as follows: Antitubercular activity against early logarithmic phase cultures of Mycobacterium tuberculosis H37Rv treated for 6 days and measured 2 days post last dose. The assay is classed as functional, organism-based. The following applies: time 8.0 day.
Assay [3] relates to Mycobacterium tuberculosis. Nature of the assay: Antimycobacterial activity against dormant Mycobacterium tuberculosis H37Rv under nutrient deprived condition. In kind it is functional, organism-based. The note with it: TDE = time-dependent effect.
Assay [4] in a line: Protection index, ratio IC50 for HEK293 cells to MIC for antitubercular activity against Mycobacterium tuberculosis H37Rv.
In assay [5] the test system is HEK293. Nature of the assay: Cytotoxicity against HEK293 cells assessed as reduction in cell viability measured after 48 hrs by MTT assay. The assay is classed as cell-based. The following applies: Homo sapiens, HEK293, 48 h.
Assay [6] relates to Mycobacterium tuberculosis. The assay is described as follows: Antimycobacterial activity against dormant Mycobacterium tuberculosis H37Rv incubated for 7 days under nutrient deprived condition. The assay is classed as functional, organism-based. The following applies: time 7.0 day.
The subject of assay [7] is Mycobacterium tuberculosis. The assay is described as follows: Antitubercular activity against Mycobacterium tuberculosis H37Rv measured after 1 week by microplate alamar blue assay. The assay is classed as functional. The note with it: 168 h, time 1 weeks.
In assay [8] the test system is Mycobacterium tuberculosis. Nature of the assay: Antitubercular activity against 6-weeks nutrient starved phase cultures of Mycobacterium tuberculosis H37Rv assessed as log reduction in bacterial growth at 10 uM treated for 7 days measured after 4 weeks relative to control. In kind it is functional. The following applies: time 5 weeks.
Assay [9] has as its system Mycobacterium tuberculosis. The assay is described as follows: Inhibition of N-terminal 6His-taggged Mycobacterium tuberculosis KARI expressed in Escherichia coli BL21 at 100 uM using 2-acetolactate as substrate preincubated for 30 mins followed by substrate addition in presence of NADPH relative to control.
In assay [10] the test system is Mycobacterium tuberculosis. Nature of the assay: Antibiofilm activity against Mycobacterium tuberculosis assessed as log reduction in bacterial growth at 10 uM measured after 1 week relative to control. The assay is classed as functional, H37Rv. The following applies: time 1 weeks.
The test system of assay [11] is Mycobacterium tuberculosis. Nature of the assay: Antitubercular activity against Mycobacterium tuberculosis H37Rv infected in mouse primary macrophages assessed as log reduction in bacterial growth at 10 uM measured after 48 hrs relative to control. The assay is classed as functional, Primary macrophage.
Assay [12] has as its system Mycobacterium tuberculosis. Nature of the assay: Antitubercular activity against early logarithmic phase cultures of Mycobacterium tuberculosis H37Rv at 1.56 to 100 uM. In kind it is functional, organism-based. The note with it: dose 1.56-100 µM, TDE = time-dependent effect.

Values after ≈ are worked out from the molar mass of the structure shown. Bounds are passed on as bounds.

As a reminder, the Ki is the equilibrium dissociation constant of an inhibitor or competing ligand from its target. For orientation: IC50 means the point on the concentration scale where inhibition reaches its midpoint. Usually MIC stands for the lowest concentration found to suppress growth. A high value points to a need for much substance. The term inhibition denotes the share of the control response that was lost under treatment. Regarding `COc1ccc(NC(=S)Nc2nnc(-c3ccc([N+](=O)[O-])o3)s2)cc1`, the Ki in assay [1] is 2.02 µM. Besides, the Activity entry is “Dose-dependent effect” in assay [2], “Tde” in assay [3] and “Dose-dependent effect” in assay [6]. Further, the PI in [4] is reported as 110.2. For the same compound, the concentration for half-maximal inhibition (IC50) in [5] was 86 µM. Further, in [7], 0.78 µM (≈ 0.294 µg/mL) was the least that counted as inhibitory (MIC). Besides, the “log(activity)” value in [8] is reported as 2.5; in [10], 1.8; in assay [11] it was 1.7. Besides, the inhibition in [9] is greater than 50%.
Turning to `CC[C@@H](CO)NCCN[C@@H](CC)CO` [ETHAMBUTOL], the lowest concentration to inhibit growth in [7] (MIC) was 7.63 µM (≈ 1.56 µg/mL).
For the compound `O=[N+]([O-])c1ccc(-c2nnc(NC(=S)Nc3ccc(F)cc3)s2)o1`, the inhibition constant Ki in assay [1] stood at 5.48 µM. The Activity entry in [2] is “Dose-dependent effect”. The PI in assay [4] amounted to 92.9. In assay [5], the 50% inhibitory concentration (IC50) was determined as 72.5 µM. Also, the lowest concentration to inhibit growth in [7] (MIC) was 0.78 µM (≈ 0.285 µg/mL). Moreover, the “log(activity)” value in assay [8] is 2.3; in assay [10], 1.3; in assay [11] it was 1.9. For the same compound, the inhibition in assay [9] is greater than 50%.
As to `O=[N+]([O-])c1ccc(-c2nnc(NC(=S)Nc3ccc(Cl)cc3)s2)s1`, the Ki in assay [1] was determined as 8.35 µM. Moreover, the PI in [4] was 4.1. Also, the IC50 in assay [5] stood at 102 µM. Besides, in assay [7], it took 25 µM (≈ 9.95 µg/mL) to inhibit growth (MIC). The “log(activity)” value stood at 1 in assay [8] and 1.2 in assay [10]. For the same compound, in assay [9], the inhibition is greater than 50%.
As to `COc1ccc(NC(=O)Nc2nnc(-c3ccc([N+](=O)[O-])s3)s2)cc1`, the inhibition constant Ki in [1] came out at 3.06 µM.
In [7], `NNC(=O)c1ccncc1` [ISONIAZID] yielded a minimum inhibitory concentration (MIC) of 0.4 µM (≈ 0.0549 µg/mL). The “log(activity)” value was 1.5 in [8], 1 in assay [10] and 2.5 in assay [11].
Regarding `CO[C@H]1/C=C/O[C@@]2(C)Oc3c(C)c(O)c4c(O)c(c(/C=N/N5CCN(C)CC5)c(O)c4c3C2=O)NC(=O)/C(C)=C\C=C\[C@H](C)[C@H](O)[C@@H](C)[C@@H](O)[C@@H](C)[C@H](OC(C)=O)[C@@H]1C` [RIFAMPIN], the MIC in [7] turned out to be 0.5 µM (≈ 0.411 µg/mL). The “log(activity)” value in [8] is listed as 1.8; in [10], 0.9.
For the compound `COc1c(N2C[C@@H]3CCCN[C@@H]3C2)c(F)cc2c(=O)c(C(=O)O)cn(C3CC3)c12` [MOXIFLOXACIN], the figures for the “log(activity)” value in [8] and in [10] were 2 and 1.8, respectively.
For the compound `COc1ccc(NC(=S)Nc2nnc(-c3ccc([N+](=O)[O-])s3)s2)cc1`, in assay [1], the inhibition constant (Ki) was found to be 9.27 µM. In addition, in assay [4], the PI was 87.4. The IC50 in [5] is 68.2 µM. The same compound registered a minimum inhibitory concentration (MIC) in assay [7] of 0.78 µM (≈ 0.307 µg/mL). Besides, the “log(activity)” value is given as 1.8 in assay [8], 1.5 in assay [10] and 2.2 in [11]. In addition, the inhibition in assay [9] is greater than 50%.
For `CC(=O)c1ccc(S(=O)(=O)Nc2nnc(-c3ccc([N+](=O)[O-])o3)s2)cc1`, the Ki in [1] was 4.72 µM. Also, the results for the Activity result in assay [3], in [6] and in assay [12] were “Tde”, “Dose-dependent effect” and “Tde”, respectively. The PI in assay [4] stood at 36.6. In addition, the concentration for half-maximal inhibition (IC50) in assay [5] was 57.1 µM. The compound further registered a minimal inhibitory concentration (MIC) in assay [7] of 1.56 µM (≈ 0.615 µg/mL). The “log(activity)” value in assay [8] amounted to 2.1; in assay [10], 1.1; in assay [11], 1.6. Besides, the inhibition in [9] is greater than 50%.

(Values after ChEMBL document CHEMBL4680225, “Design and development of ((4-methoxyphenyl)carbamoyl) (5-(5-nitrothiophen-2-yl)-1,3,4-thiadiazol-2-yl)amide analogues as Mycobacterium tuberculosis ketol-acid reductoisomerase inhibitors” (Eur J Med Chem, 2020).)
